Test results as given in patent US12247064B2, “Modified ligand-gated ion channels and methods of use” (Howard Hughes Medical Institute, priority 2017, dated 2025).
pEC50: −log10 of the molar value. Where two headings read alike, the source gives them in different places.

Legend:
α7-5HT3 [1] = biological target: T1, α7-5HT3 (Homo sapiens, UniProt P36544, M226I/T225I)
α7-GlyR [2] = biological target: T2, α7-GlyR (Homo sapiens, UniProt P36544)
α7GABAc W298A (GABAA-ρ) = assay: Agonist potency at α7GABAc channel with W298A (Table 7); format: cell-based, human; conditions: a7GABAc Q79G L141F W298A
[3] = system: α7GlyR G175K / A298G mutant chimeric channels; format: cell-based, human
α7GlyR P216I = biological target: T3, α7GlyR P216I (Homo sapiens, UniProt P36544, P216I); assay: Agonist potency at chimeric channel; format: cell-based
T3 construct: expressed in transfected cells
T3 sequence (P36544 with tags, fused parts or gaps P216I): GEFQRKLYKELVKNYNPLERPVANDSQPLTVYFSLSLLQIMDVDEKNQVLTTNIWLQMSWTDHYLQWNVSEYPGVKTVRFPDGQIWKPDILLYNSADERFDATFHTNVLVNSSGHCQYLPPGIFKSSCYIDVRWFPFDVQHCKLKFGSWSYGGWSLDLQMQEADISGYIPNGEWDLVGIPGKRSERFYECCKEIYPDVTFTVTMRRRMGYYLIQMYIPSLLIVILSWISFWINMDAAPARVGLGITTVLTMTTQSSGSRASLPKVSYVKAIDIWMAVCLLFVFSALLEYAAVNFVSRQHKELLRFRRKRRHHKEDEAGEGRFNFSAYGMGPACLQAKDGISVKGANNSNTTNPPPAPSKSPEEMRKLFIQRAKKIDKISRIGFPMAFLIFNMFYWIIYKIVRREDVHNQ

α7GlyR G175K = biological target: T4, α7GlyR G175K (Homo sapiens, UniProt P36544, G175K); assay: Agonist potency at chimeric channel; format: cell-based
T4 construct: expressed in transfected cells
T4 sequence (P36544 with tags, fused parts or gaps G175K): as the sequence (P36544 with tags, fused parts or gaps P216I) above, with G153K, I194P counted along it

α7-GlyR [4] = biological target: T2, α7-GlyR; assay: cell-based
α7-5HT3 [5] = biological target: T1, α7-5HT3; remark: listed apart in the source
5HT3-R = biological target: T5, 5HT3-R (Homo sapiens, UniProt P46098); assay: Agonist potency at 5HT3-R; format: cell-based
T5 sequence (P46098 24-478): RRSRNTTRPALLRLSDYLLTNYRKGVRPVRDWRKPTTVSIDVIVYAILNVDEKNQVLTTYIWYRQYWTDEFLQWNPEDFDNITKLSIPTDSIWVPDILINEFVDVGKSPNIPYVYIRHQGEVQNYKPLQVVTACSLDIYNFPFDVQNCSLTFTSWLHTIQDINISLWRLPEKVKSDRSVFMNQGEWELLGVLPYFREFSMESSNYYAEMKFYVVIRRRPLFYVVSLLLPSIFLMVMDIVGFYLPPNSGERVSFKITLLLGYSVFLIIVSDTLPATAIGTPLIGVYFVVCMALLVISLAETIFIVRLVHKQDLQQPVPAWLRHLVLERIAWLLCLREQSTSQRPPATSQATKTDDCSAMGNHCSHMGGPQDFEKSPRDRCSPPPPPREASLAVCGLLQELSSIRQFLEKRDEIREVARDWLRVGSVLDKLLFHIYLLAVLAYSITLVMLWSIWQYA

α4β2 nAChR = α4β2 nAChR (Homo sapiens, UniProt P17787+P43681); assay: Agonist potency at α4β2 nAChR
α4β2 nAChR, sequence (P43681 29-627 limits assumed): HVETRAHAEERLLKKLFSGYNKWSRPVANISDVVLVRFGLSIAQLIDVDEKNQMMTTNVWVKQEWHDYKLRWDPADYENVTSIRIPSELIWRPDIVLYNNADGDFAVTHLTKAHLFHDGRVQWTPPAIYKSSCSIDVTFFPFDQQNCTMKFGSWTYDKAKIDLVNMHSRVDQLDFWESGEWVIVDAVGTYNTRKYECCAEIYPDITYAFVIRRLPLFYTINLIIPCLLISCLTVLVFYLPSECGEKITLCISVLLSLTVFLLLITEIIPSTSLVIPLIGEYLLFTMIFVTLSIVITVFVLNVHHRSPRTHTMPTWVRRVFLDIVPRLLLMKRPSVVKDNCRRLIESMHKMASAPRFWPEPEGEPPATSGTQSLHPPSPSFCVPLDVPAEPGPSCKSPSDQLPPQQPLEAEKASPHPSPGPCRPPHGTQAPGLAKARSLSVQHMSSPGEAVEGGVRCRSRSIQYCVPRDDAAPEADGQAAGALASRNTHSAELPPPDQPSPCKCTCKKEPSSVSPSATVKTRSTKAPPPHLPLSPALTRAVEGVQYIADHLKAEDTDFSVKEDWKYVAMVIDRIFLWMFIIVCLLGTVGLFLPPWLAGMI
α4β2 nAChR, sequence (P17787 26-502): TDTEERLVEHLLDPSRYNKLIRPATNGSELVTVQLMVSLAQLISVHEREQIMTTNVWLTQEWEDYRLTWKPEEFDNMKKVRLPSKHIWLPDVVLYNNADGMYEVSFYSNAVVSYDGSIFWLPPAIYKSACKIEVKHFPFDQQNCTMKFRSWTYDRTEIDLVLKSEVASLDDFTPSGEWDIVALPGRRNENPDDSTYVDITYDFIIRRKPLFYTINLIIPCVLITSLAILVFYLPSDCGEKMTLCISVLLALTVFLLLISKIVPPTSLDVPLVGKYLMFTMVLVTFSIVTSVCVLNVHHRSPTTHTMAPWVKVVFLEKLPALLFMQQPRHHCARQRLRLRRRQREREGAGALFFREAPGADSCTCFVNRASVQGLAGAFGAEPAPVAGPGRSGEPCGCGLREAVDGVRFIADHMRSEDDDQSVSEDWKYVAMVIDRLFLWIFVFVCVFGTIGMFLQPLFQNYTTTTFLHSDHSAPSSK

[6] = system: mice expressing PSAM^4-GlyR unilaterally in SNr; assay: Unilateral SNr silencing rotation assay; format: in vivo, mouse; conditions: SNr silencing rotation assay in mice
[7] = read-out: α7-5HT3 EC50, HEK cells, Table 3

T1 sequence (P36544 with tags, fused parts or gaps T225I/M226I limits assumed): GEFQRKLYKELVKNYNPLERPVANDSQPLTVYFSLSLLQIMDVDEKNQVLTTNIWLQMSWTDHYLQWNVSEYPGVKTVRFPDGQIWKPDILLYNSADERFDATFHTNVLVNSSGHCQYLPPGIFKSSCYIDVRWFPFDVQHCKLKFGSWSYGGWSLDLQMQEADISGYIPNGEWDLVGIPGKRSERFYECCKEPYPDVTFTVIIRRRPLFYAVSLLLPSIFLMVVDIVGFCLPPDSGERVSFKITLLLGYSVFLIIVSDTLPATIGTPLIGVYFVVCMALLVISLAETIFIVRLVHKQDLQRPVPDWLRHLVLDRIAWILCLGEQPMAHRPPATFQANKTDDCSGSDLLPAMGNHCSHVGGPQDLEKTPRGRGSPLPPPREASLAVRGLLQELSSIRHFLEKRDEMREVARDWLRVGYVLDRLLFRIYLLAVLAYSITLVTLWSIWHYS
T2 sequence (P36544 with tags, fused parts or gaps): as the sequence (P36544 with tags, fused parts or gaps P216I) above, with I194P counted along it

Compound	pEC50 (α7-GlyR [4])	pEC50 (α7-5HT3 [5])	pEC50 (5HT3-R; 5HT3-R, Table 10)	pEC50 (α4β2 nAChR; […], α4β2 nAChR, Table 10)	further results
COc1ccc(OC)c(C(=O)NC2C3CCN(CC3)C2Cc2cccnc2)c1 (mixture of isomers) [compound 0434]	–	–	–	–	pEC50 (α7-5HT3 [1]; [7]): < 5.00; pEC50 (α7-GlyR [2]): < 5.00
O=C(NC1C2CCN(CC2)C1Cc1cccnc1)c1ccc(C(F)(F)F)cc1 (mixture of isomers) [compound 0436]	–	–	–	–	pEC50 (α7-5HT3 [1]; [7]): 6.08; pEC50 (α7-GlyR [2]): 6.51
O=c1cccc2n1C[C@@H]1CNC[C@H]2C1 [Cytisine]	–	–	–	–	pEC50 (α7GABAc W298A (GABAA-ρ)): 4.88; pEC50 ([3]; read-out: Agonist potency; α7GlyR Q79G A298G G175K Y115F): 5.34; pEC50 ([3]; read-out: Agonist potency; α7GlyR Q79G A298G P216I): 5.26; pEC50 ([3]; read-out: Agonist potency; α7GlyR Q79G A298G Y115F K395 K396A): < 4.52; pEC50 ([3]; read-out: Agonist potency; α7GlyR Q79G G175K A298G): 6.87; pEC50 ([3]; read-out: Agonist potency; α7GlyR Q79G W77F A298G): 4.85; pEC50 ([3]; read-out: Agonist potency; α7GlyR R27D E41R Q79G Y115F): < 4.52
Clc1ccc(C2CC3CCC2N3)cn1 (stereo not shown) [Epibatidine]	–	–	–	–	pEC50 (α7GABAc W298A (GABAA-ρ)): 6.38; pEC50 ([3]; α7GlyR Q79G A298G G175K Y115F; read-out: Agonist potency): 7.96; pEC50 ([3]; α7GlyR Q79G A298G P216I; read-out: Agonist potency): 7.30; pEC50 ([3]; α7GlyR Q79G A298G Y115F K395 K396A; read-out: Agonist potency): 6.82; pEC50 ([3]; α7GlyR Q79G G175K A298G; read-out: Agonist potency): 8.64; pEC50 ([3]; α7GlyR Q79G W77F A298G; read-out: Agonist potency): 6.43; pEC50 ([3]; α7GlyR R27D E41R Q79G Y115F; read-out: Agonist potency): 6.57
CN1C2CCCC1CC(NC(=O)c1nn(C)c3ccccc13)C2 (stereo not shown) [Granisetron, reference compound]	–	–	–	–	activation of channel (α7-5HT3 [1]): does not activate
CN1CCCC1c1cccnc1 (stereo not shown) [Nicotine]	–	–	–	–	increased potency (α7GlyR P216I): > 4 fold; increased potency (α7GlyR G175K): 10 fold
O=C(N[C@@H]1CN2CCC1CC2)c1ccc(C(F)(F)F)cn1 [compound 0295]	–	–	–	–	pEC50 (α7-5HT3 [1]; [7]): < 4.00; pEC50 (α7-GlyR [2]): < 4.00
O=C(NC1CN2CCC1CC2)c1ccc(C(F)(F)F)nc1 (stereo not shown) [compound 0296]	–	–	–	–	pEC50 (α7-5HT3 [1]; [7]): < 4.00
O=C(Nc1ccccc1)N[C@@H]1CN2CCC1CC2 [compound 0353]	–	–	–	–	pEC50 (α7-5HT3 [1]; [7]): 6.19; pEC50 (α7-GlyR [2]): 6.57
S=C(Nc1ccc(Cl)cc1)NC1CN2CCC1CC2 (stereo not shown) [compound 0354]	–	–	–	–	partial agonist activity (α7-5HT3 [1]; HEK cells, Table 3): 1.4 partial
CN1C2CCC1CC(NC(=S)c1c[nH]c3ccccc13)C2 (stereo not shown) [compound 0542]	–	–	–	–	pEC50 (α7-5HT3 [1]; [7]): 5.42
O=C(N[C@@H]1CN2CCC1CC2)c1c[nH]c2ccccc12 [compound 0676]	–	–	–	–	pEC50 (α7-5HT3 [1]; [7]): 7.52
Cc1ccccc1-c1cnc2cc3c(cc2n1)C1CNCC3C1 (stereo not shown) [compound 780]	< 4.00	4.97	–	–	–
Cc1ccccc1-c1cnc2cc3c(cc2n1)C1CC3CN(C)C1 (stereo not shown) [compound 782]	< 4.00	< 4.00	< 4.52	–	–
Cc1nc2cc3c(cc2[nH]c1=O)C1CNCC3C1 (stereo not shown) [compound 783]	< 4.00	–	6.37	–	pEC50 (α4β2 nAChR; […]): 4.37
O=c1[nH]c2cc3c(cc2nc1-c1ccccc1)C1CNCC3C1 (stereo not shown) [compound 784]	< 4.52	< 4.52	5.21	–	–
c1c2c(cc3nc4c(nc13)CCCC4)C1CNCC2C1 [compound 785]	< 4.00	–	4.99	–	–
c1cncc(-c2nc3cc4c(cc3[nH]2)C2CNCC4C2)c1 (stereo not shown) [compound 786, 2-(pyridin-3-yl)-1,5,6,7,8,9-hexahydro-5,9-methanoimidazo[4′,5′:4,5]benzo[1,2-d]azepine]	< 4.00	< 4.00	–	–	–
FC(F)(F)c1cnc2cc3c(cc2n1)C1CNCC3C1 (stereo not shown) [compound 788]	< 4.00	< 4.00	4.39	< 4.52	–

Compound	pEC50 (α7-GlyR [4])	pEC50 (α7-5HT3 [5])	pEC50 (5HT3-R; 5HT3-R, Table 10)	pEC50 (α4β2 nAChR; […], α4β2 nAChR, Table 10)	further results
COc1nc2cc3c(cc2nc1-c1ccccc1)C1CNCC3C1 (stereo not shown) [compound 789]	< 4.00	< 4.00	6.29	< 4.52	–
Cc1nc2cc3c(cc2n(C)c1=O)C1CNCC3C1 (stereo not shown) [compound 790]	< 4.00	< 4.00	5.37	< 4.52	–
COc1nc2cc3c(cc2nc1C)C1CNCC3C1 (stereo not shown) [compound 791]	< 4.52	–	6.77	< 4.52	–
Cn1c(=O)cnc2cc3c(cc21)C1CNCC3C1 (stereo not shown) [compound 792]	–	< 4.52	4.39	–	pEC50 (α7-GlyR [2]): < 4.52
COc1cnc2cc3c(cc2n1)C1CNCC3C1 (stereo not shown) [compound 793]	–	–	–	–	pEC50 (5HT3-R): 6.72; pEC50 (α7-GlyR [2]): 4.72
Cc1nc2cc3c(cc2nc1N(C)C)C1CNCC3C1 (stereo not shown) [compound 794]	< 4.52	–	5.77	< 4.52	–
CCN(CC)c1nc2cc3c(cc2nc1C)C1CNCC3C1 (stereo not shown) [compound 795]	< 4.52	–	5.96	< 4.52	pEC50 (α4β2 nAChR; potency for α4β2 nAChR): < 5.00; pEC50 (5HT3-R; read-out: potency for 5HT3-R): < 6.00
Cc1nc2cc3c(cc2nc1-n1ccnc1)C1CNCC3C1 (stereo not shown) [compound 798]	< 4.52	< 4.52	5.96	4.55	–
c1ccn(-c2cnc3cc4c(cc3n2)C2CNCC4C2)c1 (stereo not shown) [compound 799]	< 4.00	–	4.93	5.46	–
c1cn(-c2cnc3cc4c(cc3n2)C2CNCC4C2)cn1 (stereo not shown) [compound 800]	< 4.52	–	5.46	4.86	–
c1ncn(-c2cnc3cc4c(cc3n2)C2CNCC4C2)n1 (stereo not shown) [compound 801]	< 4.52	–	5.36	4.59	–
Cc1nc2cc3c(cc2nc1-c1cccnc1)C1CNCC3C1 (stereo not shown) [compound 802]	< 4.52	–	–	–	pEC50 (α4β2 nAChR; […]): < 4.52; pEC50 (α4β2 nAChR; potency for α4β2 nAChR): < 5.00; pEC50 (5HT3-R; […], 5HT3-R, Table 10): 5.82; pEC50 (5HT3-R; potency for 5HT3-R): < 6.00
Cc1nc2cc3c(cc2nc1-c1ccncc1)C1CNCC3C1 (stereo not shown) [compound 803]	< 4.52	–	–	–	pEC50 (α4β2 nAChR; […]): 4.85; pEC50 (5HT3-R; […], 5HT3-R, Table 10): 6.12
c1cncc(-c2cnc3cc4c(cc3n2)C2CNCC4C2)c1 (stereo not shown) [compound 804]	< 4.52	–	–	–	pEC50 (α4β2 nAChR; […]): 5.32; pEC50 (5HT3-R; […], 5HT3-R, Table 10): 5.70
c1cc(-c2cnc3cc4c(cc3n2)C2CNCC4C2)ccn1 (stereo not shown) [compound 805]	< 4.52	–	–	–	pEC50 (α4β2 nAChR; […]): 5.31; pEC50 (5HT3-R; […], 5HT3-R, Table 10): 6.00
Cc1nc2cc3c(cc2nc1Cn1cncn1)C1CNCC3C1 (stereo not shown) [compound 807]	< 4.52	< 4.52	6.24	< 4.52	–
Cc1nc2cc3c(cc2nc1-n1cncn1)C1CNCC3C1 (stereo not shown) [compound 808]	< 4.52	< 4.52	4.90	< 4.52	pEC50 (α4β2 nAChR; potency for α4β2 nAChR): < 5.00; pEC50 (5HT3-R; read-out: potency for 5HT3-R): < 6.00
Cc1nc2cc3c(cc2nc1Cn1cccn1)C1CNCC3C1 (stereo not shown) [compound 812]	< 4.00	< 4.00	4.96	< 4.00	–
CCOc1cnc2cc3c(cc2n1)C1CNCC3C1 (stereo not shown) [compound 815]	–	–	–	–	α4β2 nAChR agonism (α4β2 nAChR): do not show evident α4β2 nAChR agonism; pEC50 (α4β2 nAChR; read-out: EC50MP): < 4.52; pEC50 (α7-5HT3 [1]; read-out: EC50MP): < 4.00; In vivo potency [6]: 0.1 mpk; pEC50 (α7-GlyR [2]): < 4.00
